# Reference: article PMC11258615 (RSC Advances, 2024)
# Entries after “also recorded” stand apart in the source; their conditions may differ.
# Biological target: mushroom tyrosinase (Agaricus bisporus, UniProt C7FF04)
# Experiment: Kinetic analysis of tyrosinase inhibition
# Conditions: L-DOPA 0.5 to 3 mM
# mushroom tyrosinase, sequence (C7FF04 1-392): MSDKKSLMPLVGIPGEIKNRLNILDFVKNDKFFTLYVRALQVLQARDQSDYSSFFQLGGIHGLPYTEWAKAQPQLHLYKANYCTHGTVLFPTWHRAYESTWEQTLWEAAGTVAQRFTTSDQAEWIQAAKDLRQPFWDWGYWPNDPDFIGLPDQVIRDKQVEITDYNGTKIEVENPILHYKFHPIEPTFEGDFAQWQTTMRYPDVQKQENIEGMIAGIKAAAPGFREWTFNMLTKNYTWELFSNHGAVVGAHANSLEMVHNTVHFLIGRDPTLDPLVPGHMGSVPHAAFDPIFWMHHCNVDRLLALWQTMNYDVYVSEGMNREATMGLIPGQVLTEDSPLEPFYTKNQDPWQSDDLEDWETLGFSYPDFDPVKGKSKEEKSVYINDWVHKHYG
smiles,measurement,value
"Nc1ccc(-c2cc(-c3ccc(-c4cc(-c5ccc(N)cc5)nc(N)n4)cc3)nc(N)n2)cc1 [Compound 6P, 6,6′-(1,4-phenylene)bis[4-(4-aminophenyl)pyrimidin-2-amine]]",Type of tyrosinase inhibition (Lineweaver-Burk plots),mixed-type inhibitor; also recorded: mixed-type inhibition
